The subject of data set [1] is V79-4 (Chinese Hamster Lung fibroblast) cells. Nature of the data set: Flow cytometry measurement of delivery of IdU labeled ACes with transfection agents. In kind it is cell-based. To be noted: percentage of transfected cells containing IdU labeled ACes, 1×10^6 ACes complexed with agent, agent dose in microliters per Table 2. A general note: In flow cytometry, cells or beads pass a laser one at a time.
Procedure: All compounds were tested in a Chinese Hamster lung fibroblast line (V79-4, ATCC number CCL-39). Approximately 17 hours (2 cell doublings) prior to transfection, exponentially growing cells were trypsinized and plated at 250,000 cells per well into a 6 well petri dish with Dulbecco's Modified Eagle Medium (Life Technologies, Burlington, ON) and supplemented with 10% FBS (Can Sera, Rexdale ON)). At the time of transfection, the number of cells per well was estimated to be approximately 1 million. For transfection, each individual manufacturer's protocol for complexing to naked DNA was followed, with the exception that the amount of transfection agent used was varied, to reflect the different amount and type of DNA present, as well as the different ionic strength of the complexing. […]
The percentage of transfected cells containing IdUrd-labeled ACes was determined using flow cytometry and collecting FITC fluorescence. Data were accumulated to form bivariate channel distribution showing forward scatter versus green fluorescence (IdUrd-FITC). The fluorescence level at which cells were determined to be positive was established by visual inspection of the histogram of negative control cells such that the gate for the negative cells was set such that 1% appeared in the positive region. […]

The next data set deals with CHO-KI cells. Nature of the data set: Ultrasound mediated transfection of CHO-KI cells with GFP chromosomes. In kind it is cell-based. The procedure:
Vesicles were prepared at a lipid concentration of 700 nmol/ml lipid (cationic lipid/DOPE 1:1) as follows. In a glass tube (10 ml) 350 nmol cationic lipid (SAINT-2) was mixed with 350 nmol dioleoylphosphatidylethanolamine (DOPE), both solubilized in an organic solvent (Chloroform, Methanol or Chloroform/Methanol 1:1, v/v). Dioleoylphosphatidylethanolamine (DOPE; Avanti Polar Lipids, Alabaster, Ala.) forms inverse hexagonal phases in a membrane and weakens the membrane. Other effectors that may be used are cis-unsaturated phosphatidylethanolamines, cis-unsaturated fatty acids, and cholesterol.
The solvent was evaporated under a stream of nitrogen (15 min/ 250 μl solvent at room temperature). The remaining solvent was removed totally by drying the lipid for 15 min in a desiccator under high vacuum from a vacuum pump. To the dried mixture was added 1 ml ultrapure water. This was vortexed vigorously for about […]. The resulting solution was sonicated in an ultrasonication bath (Laboratory Supplies Inc. NY) until a clear solution was obtained. The resulting suspension contained a population of unilamellar vesicles with a size distribution between 50 to 100 nm.
CHO-KI cells were grown at 37°, 5% CO2, in CHO-S-SFM 2 Medium, (Gibco BRL, Paisley, UK). Between 2×10^5 and 5×10^5 cells were plated onto sterile glass slides in a 12 well plate 24 h before usage.
(§1) Transfection of the cells was performed as follows. The medium was removed from the cells, and the cells were washed twice with HBSS (Hanks balanced salt solution without Phenol Red (Gibco BRL, UK)) at 37° C. Then 500 μl HBSS at 37° C. was added per well, followed by 10 μl of the freshly prepared vesicle solution (prepared in Example 2) to yield a final concentration of 23.3 nmol/ml.
(§2) Alternatively, the medium was removed from the cells, and the cells were washed twice with HBSS. 500 μl HBSS/lipid solution at 37° C. was added to each well. The HBSS/lipid solution was prepared by adding 1 μl ethanolic lipid solution (prepared as described above) to 500 μl HBSS under vigorous vortexing. The plates were then sealed with parafilm tape and shaken gently at room temperature for 30 min. After incubation, ultrasound was applied at an output energy of 0.5 Watt/cm^2 for 60 sec through the bottom of the plate to the cells. The ultrasound was mediated by an ultrasound gel (Aquasonic 100, Parker, N.J.) between transducer and plate. The ultrasound was applied with an ImaRx Sonoporator 100. Immediately after applying ultrasound one GFP chromosome per seeded cell (2×10^5-5×10^5) (prepared in Example 1) was added. The plate was then sealed again and shaken gently for 1 h at room temperature. […]

A further data set relates to A9 cells. Nature of the data set: Ultrasound mediated transfection of A9 cells with GFP chromosomes. In kind it is cell-based, murine. The procedure:
as §1, §2

Another data set concerns Hep-G2 cells. Nature of the data set: Ultrasound mediated transfection of Hep-G2 cells with GFP chromosomes. In kind it is cell-based. The procedure:
as §1, §2

[2] abbreviates: Saint-2/DOPE 1:1, ultrasound 0.5 Watt/cm^2 for 60 sec.

As for `CCCCCCCCCCCCCCN=C(CCNCCCCCCCCCCCCCC)NC(C)(C)C` [CLONFECTIN, N-t-butyl-N′-tetradecyl-3-tetradecyl-aminopropionamidine], the “DELIVERY % IdU positive (24 hours)” value in data set [1] amounted to 0.61%.
As to `CCCCCCCCC=CCCCCCCCCC(CCCCCCCCC=CCCCCCCCC)c1cc[n+](C)cc1.[Cl-]` (stereo not drawn) [Saint-2, 1-methyl-4-(1-octadec-9-enyl-nonadec-10-enylenyl) pyridinium chloride], the “cells remained on the glass slide after transfection” value amounted to 30% in the data set on CHO-KI cells (Saint-2/DOPE 1:1, ultrasound 0.5 Watt/cm^2 for 60 sec, visual inspection) and 30% in the data set on Hep-G2 cells (setting [2]). Further, the “GFP positive cells, of original population” value in the data set with CHO-KI cells (after 48 hours) came out at 3%. Besides, the “remaining cells positive for green fluorescent protein expression” value with CHO-KI cells (after 48 hours, of the cells remaining on the slide) is reported as 10%; in the data set on A9 cells (of the cells remaining on the glass) it was 50%; in the data set with Hep-G2 cells (of the cells remaining on the slide), 80%. Besides, the “cells containing an intact artificial chromosome (FISH)” value in the data set on CHO-KI cells (after culturing for two weeks) is given as 1.4%. Moreover, in the data set with A9 cells (setting [2]), the “cells remained on the glass after transfection” value worked out at 30%.

The record behind these values is patent publication US6936469B2, “Methods for delivering nucleic acid molecules into cells and assessment thereof” (Chromos Molecular Systems Inc., priority 2001, dated 2005).
